Experimental data taken from patent US10919889B2, “Chiral heterocyclic compound with hedgehog pathway antagonist activity, method and use thereof” (SUZHOU KINTOR PHARMACEUTICALS, INC., priority 2016, dated 2021).

Molecular target: T1, WT-Smo (Homo sapiens, UniProt Q99835)
T1 construct: HA; expressed in transfected cells
Experiment: Bodipy-Cyclopamine binding assay
Details: used in the Cheng-Prusoff equation
Protocol: Bodipy-Cyclopamine binding assay is a fluorescence based assay used to analysis the binding of Smo agonists. Hek293-SMO stable clones were established by puromycin (1 ug/ml, Invitrogen) selection after transfection with SMO-HA-pLVX plasmid Hek293-SMO cells were maintained in complete culture medium (DMEM with 4 mM L-Gln, 1.5 g/L sodium bicarbonate and 4.5 g/L glucose supplemented with 100 ug/ml hygromycin and 10% FBS). The expression of SMO was validated with western blot and cell immunofluorescence. Bodipy-Cyclopamine was purchased from Toronto Research Chemicals and dissolved in methanol.
Hek293-SMO cells were plated in 96-well-plate (3340, Corning), the final cell concentration is 15,000 cells/well in 100 ul 1% serum-containing DMEM. The plates were incubated in 37 degree for additional 48 hours.
Hek293-SMO plate were washed with PBS and fixed with 4% paraformaldehyde (PFA)/PBS for 20 min at room temperature. After removing the PFA buffer, the cells were incubated with DAPI/PBS (5 ug/mL) for 10 min and followed by twice wash with PBS. […] The fluorescence images were automatically captured and analyzed by a high content fluorescence imaging system (Arrayscan VTI, Thermo). […] IC50 values were calculated with GraphPad Prism software using the sigmoidal dose-response function. The Ki was calculated following the Cheng-Prusoff equation, as Ki=IC50/[1+[bodipy-cyclopamine]/Kd)].

T1 sequence (Q99835 28-787): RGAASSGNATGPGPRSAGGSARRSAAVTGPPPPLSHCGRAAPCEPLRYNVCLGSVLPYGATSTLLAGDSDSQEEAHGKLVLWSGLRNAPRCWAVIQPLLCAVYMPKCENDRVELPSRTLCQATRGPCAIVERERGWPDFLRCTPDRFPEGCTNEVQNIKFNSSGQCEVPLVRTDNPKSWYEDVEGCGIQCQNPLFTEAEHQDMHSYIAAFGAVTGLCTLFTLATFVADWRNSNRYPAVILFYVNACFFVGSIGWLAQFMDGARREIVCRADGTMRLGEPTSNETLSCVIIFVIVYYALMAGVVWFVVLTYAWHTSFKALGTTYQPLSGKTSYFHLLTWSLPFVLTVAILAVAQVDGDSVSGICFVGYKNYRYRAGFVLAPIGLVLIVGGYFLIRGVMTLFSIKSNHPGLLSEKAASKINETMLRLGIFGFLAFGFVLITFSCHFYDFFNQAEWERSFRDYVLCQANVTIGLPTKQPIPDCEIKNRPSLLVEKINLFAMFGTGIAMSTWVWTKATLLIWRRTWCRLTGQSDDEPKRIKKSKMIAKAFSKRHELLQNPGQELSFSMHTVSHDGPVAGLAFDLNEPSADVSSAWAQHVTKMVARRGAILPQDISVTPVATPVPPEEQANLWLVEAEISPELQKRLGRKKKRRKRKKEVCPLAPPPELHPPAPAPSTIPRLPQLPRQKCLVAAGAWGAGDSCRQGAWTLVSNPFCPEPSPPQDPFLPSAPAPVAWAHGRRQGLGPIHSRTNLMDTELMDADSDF

With `CC1=C2CC3C(CC=C4C[C@@H](O)CCC43C)C2CCC12O[C@@H]1CC(C)CN(CCNC(=O)CCCCCNC(=O)CCC3=[N+]4C(=Cc5c(C)cc(C)n5[B-]4(F)F)C=C3)C1C2C` (stereo partly shown) [bodipy-cyclopamine] as the molecule, how does the Kd read?
The Kd was 3.5 ± 0.8 nM.
